Legend:
Hep3B cell [1] = assay: Toxicity test of drugs, Hep3B cell cultured in microarray cell chip (3D alginate culture on the chip); type: cell-based; details: read-out: IC50 (concentration of drug when 50% of cells shows the growth inhibition), Cell chip according to Invention (3D Hep3B cell culture on the chip); 3D Hep3B cell culture in alginate on the chip; drug cultured for a day; calcein AM / ethidium homodimer-1 staining
Procedure: The mixture of the alginate-Hep3B cell line primarily combined the upper substrate 100 formed on the spacer with the lower substrate 200 having 800 nl of culture medium in the well 210 to gelate the alginate, thereby removing the extra barium chloride. The upper substrate 100 is separated after removing the extra barium chloride and again combines with the lower substrate 200 having 800 nl of new culture medium in the well 210, thereby culturing the Hep3B cell.
After the culture ends, the Hep3B cell existing on the upper substrate 100 was dyed with the fluorescent material (calcein AM and ethidium homodimer-1).

Hep3B cell [2] = assay: Toxicity test of drugs, Hep3B cell cultured in microtiter plate (2D monolayer in 96-wells); type: cell-based; details: read-out: IC50 (concentration of drug when 50% of cells shows the growth inhibition), Microtiter Plate (2D Hep3B cell monolayer in 96-wells), drug cultured for a day
Excerpt: The values shown in the above Table were obtained based on the results of culturing the drug for a day, dying it immediately after the culturing, and scanning it.

Row | Compound | IC50 (Hep3B cell [1]) [µM] | IC50 (Hep3B cell [2]) [µM]
1 | CCN(CC)C(=O)/C(C#N)=C/c1cc(O)c(O)c([N+](=O)[O-])c1 [Entacapone] | 381 | 850
2 | Cc1ccc(C(=O)c2cc(O)c(O)c([N+](=O)[O-])c2)cc1 [Tolcapone] | 171 | 50
3 | CCN(CC)CCCC(C)Nc1ccnc2cc(Cl)ccc12 (stereo not drawn) [Chliroquine, Chloroquine] | – | 50
4 | O=C(O)Cc1ccccc1Nc1c(Cl)cccc1Cl [Diclofenac] | 375 | 230
5 | CO[C@@]12[C@H](COC(N)=O)C3=C(C(=O)C(C)=C(N)C3=O)N1C[C@@H]1N[C@@H]12 [Mitomycin C] | 124 | 40

From patent US20140011711A1, “MICROARRAY CELL CHIP” (Solidus Biosciences, Inc., priority 2010, published 2014)
